Experiment: Cytotoxicity against human HeLaS3 cells by WST1 assay
Format: functional, cell-based
Conditions: HeLa S3

For `CCC(C)CC(=O)O[C@@H]1OC=C(CO)[C@H]2C[C@H](OC(=O)/C=C/c3ccc(O)cc3)[C@](O)(CO)[C@@H]12` (stereo not given in full) [1-O-DEISOVAEROYL-1-O-3-METHYLVALEROYL-LUZONOID A], which IC50 is on record?
The IC50 was 7.4 µM.

Which IC50 does the source give for `O=c1[nH]cc(F)c(=O)[nH]1` [FLUOROURACIL] here?
Its IC50 is 5.4 µM.

Which IC50 does the source give for `CC(C)CC(=O)O[C@@H]1OC=C(CO)[C@H]2C[C@H](OC(=O)/C=C/c3ccc(O)cc3)[C@](O)(CO)[C@@H]12` [LUZONOID A] here?
Its IC50 is 2.89 µM.

For `CC(C)CC(=O)O[C@@H]1OC=C(CO)[C@H]2C[C@H](OC(=O)/C=C\c3ccc(O)cc3)[C@](O)(CO)[C@@H]12` [LUZONOID B], which IC50 is on record?
The IC50 was 3.11 µM.

Which IC50 does the source give for `CC(C)CC(=O)O[C@@H]1OC=C(CO)[C@H]2C[C@H](O)[C@](O)(COC(=O)/C=C/c3ccc(O)cc3)[C@@H]12` [LUZONOID C] here?
The IC50 was 3.57 µM.

Which IC50 does the source give for `CC(C)CC(=O)O[C@@H]1OC=C(CO)[C@H]2C[C@H](O)[C@](O)(COC(=O)/C=C\c3ccc(O)cc3)[C@@H]12` [LUZONOID D] here?
The IC50 was 4.56 µM.

With `CC(C)CC(=O)O[C@@H]1OC=C(CO[C@@H]2O[C@H](CO)[C@@H](O)[C@H](O)[C@H]2O)[C@H]2C[C@H](OC(=O)/C=C/c3ccc(O)cc3)[C@](O)(CO)[C@@H]12` [LUZONOSIDE A] as the compound, how does the IC50 read?
The IC50 was 3.39 µM.

With `CC(C)CC(=O)O[C@@H]1OC=C(CO[C@@H]2O[C@H](CO)[C@@H](O)[C@H](O)[C@H]2O)[C@H]2C[C@H](OC(=O)/C=C\c3ccc(O)cc3)[C@](O)(CO)[C@@H]12` [LUZONOSIDE B] as the compound, how does the IC50 read?
Its IC50 is 4.67 µM.

With `COC(=O)C1=CO[C@@H](O[C@@H]2O[C@H](CO)[C@@H](O)[C@H](O)[C@H]2O)[C@@H]2[C@@H](COC(=O)/C=C/c3ccc(O)cc3)CC[C@H]12` [LUZONOSIDE C] as the compound, how does the IC50 read?
Its IC50 is 100 µM.

With `COC(=O)C1=CO[C@@H](O[C@@H]2O[C@H](CO)[C@@H](O)[C@H](O)[C@H]2O)[C@@H]2[C@@H](COC(=O)/C=C\c3ccc(O)cc3)CC[C@H]12` [LUZONOSIDE D] as the compound, how does the IC50 read?
Its IC50 is 100 µM.
